The source of these data is US6011000A, “Compositions for the treatment of blood disorders” (priority 1995, dated 2000).

In test [1] the test system is fetal globin mRNA (human erythroleukemia cells). Briefly: Fetal globin mRNA in erythroleukemia cells (primer extension). It counts as cell-based. The conditions noted are these: for Gamma/Alpha: untreated 0.46; for activation at 1000 µM: Homo sapiens, 96 h, read-out: Gamma Globin mRNA (increase). The procedure:
Compounds were tested for increased expression of the human globin genes in human erythroid cells. In addition, as the cell line being tested is a tumor cell line, the assay determines if differentiation, a growth inhibitory effect on cancer cells, is induced by the compounds tested. Human erythroleukemia cells were cultured in RPMI media with 10% fetal calf serum alone or with treatment with various compounds for 4 days. Globin MRNA was quantitated by primer extension analysis. Fetal globin mRNA was compared to the amount of fetal globin mRNA produced in untreated cells during the same culture period. The quantitation was expressed as a percent of alpha globin MRNA which was constant. Results are expressed proportional to α-globin mRNA (Table 3).

A further test concerns MCF-7 cells. Nature of the test: Growth/viability of human mammary carcinoma cells. It counts as cell-based. The note with it: MCF7, 96 h, 4 days, read-out: growth decrease of MCF-7 cells. As to the method:
Human mammary carcinoma cells (MCF-7) were cultured alone (controls) and with arginine butyrate or isobutyramide for 4 days. Viability was assayed by FACS after incubation with a fluorescent dye taken up by viable cells (FIG. 6). Growth was decreased by 50% with isobutyramide at 1.0 mM, about 60% with arginine butyrate at 0.5 mM, and greater than 90% with arginine butyrate at 1.0 mM.

For the next test, the system named is γ-globin gene promoter. Nature of the test: In vivo footprinting of the γ-globin promoter. The arrangement: species or system human. As to the method:
To determine whether this increase was due to the transcriptional modulation of the γ-globin genes and, if so, to examine whether protein-DNA interactions of regulatory sequences for γ-globin gene expression have been changed, in vivo footprinting analysis of the γ-globin gene promoter and HSS-II region of the locus control region (LCR) were performed. […] Compared to conventional in vitro footprinting methods, which are ordinarily employed to analyze protein-DNA interactions for promoter regions and fail to disclose tissue-specific binding of nuclear proteins to cis-acting elements, in vivo footprinting technique is able to provide bona fide information on transcription factors binding to cis-acting elements that reflects in vivo situations.
Erythroid cell-rich fractions were prepared from patients' peripheral blood or bone marrow before and during treatment, and were in vivo methylated using DMS. Ligation-mediated polymerase chain reaction (LM-PCR) was performed (J. L. Mueller et al., Sci. 246:780-86, 1989). Briefly, 3-7 μg of DNA was suspended in 15 μl of solution A (40 mM Tris-HCl, pH 7.7, 50 mM NaCl) containing […] of primer. First-strand synthesis was performed by adding 7.5 μl of solution B (20 mM MgCl2, 20 mM DTT, 60 μM dNTP) and 1.5 μl of 1:4 diluted Sequenase version 2.0 (United States Biochemical; Cleveland, Ohio) with TE and incubating at 50° C. for 10 minutes. The reaction was quenched by heating at 68° C. for 10 minutes, adding 6 μl of 310 mM Tris-HCl, pH 7.7, and subsequently extracting with phenol/chloroform/isoamyl alcohol (25:24:1) and with ether. […] All of the footprints were analyzed two or more times to ensure reproducibility.
In the γ-globin gene promoter, a DNA fragment extending up to -200 bp relative to the transcription start site is sufficient to direct efficient transcription of the γ-globin genes (K. T. McDonagh et al., J. Biol. Chem. 266:11965-74, 1991; M. J. Urich Blood 75:990-99, 1990). […] Erythroblasts from a patient with sickle cell anemia, before and after butyrate treatment were analyzed. […]

Test [2] concerns fetal globin (gamma globin). Briefly: Fetal globin expression in erythroid progenitor cells from cord blood. The format is cell-based, human. The procedure: Compositions were tested for activity in inducing fetal globin expression and protein production in erythroid progenitor cells cultured from human cord blood and analyzed as described by S. P. Perrine et al. (Blood 74: 454-60, 1989). Briefly, mononuclear cells were cultured in IMDM with 30% fetal calf serum and 2 units erythropoietin per ml to induce erythroid differentiation. Colonies were harvested on day 12-13, incubated with radio-labelled (^3 H) leucine, and further incubated in leucine-free media, still in the presence of compounds, overnight. Globin composition in the erythroid cells was analyzed by laser densitometry of electrophoretically separated globin chains stained with Coomassie blue, and by autoradiography. Treated cells were incubated for 12-13 days (Table 2, Experiments A and B) or overnight (Table 2, Experiment C) in the presence of the indicated compounds and compared to untreated control cells cultured from the same human subject.

Test [3] relates to proximal promoter of the gamma globin gene (K562 cells). Briefly: Gamma globin promoter-neomycin transfection (61 bp proximal promoter), G418-resistant colonies. It counts as cell-based, human. The procedure: Gamma globin promoter-neomycin transfection experiments were performed to determine if compounds act by inducing an increase in activity from the proximal promoter of the gamma globin gene. Constructs containing 61 bp of the proximal gamma globin promoter were linked to the reporter gene for neomycin phosphotransferase (NEO) and transfected into permissive K562 cells by electroporation. After 18 hours, transfected cells were passed at 10^3 cells per well into RPMI media containing G418 (neomycin), which kills all mammalian cells unless the gene for NEO is expressed. Phenoxyacetic acid and thiophenoxyacetic acid were added to some of the cells plated into the RPMI/G418 media at concentrations of 1 mM. Cultures were incubated for 8 weeks with media changes performed as needed. Colonies which survived and grew in the presence of G418 were scored and the number of such colonies was compared to those generated when the cells were plated into G418 media without the test compounds. […] There was a greater than 6-fold (>600%) increase in proportions of colonies surviving the presence of phenoxyacetic acid (6/24 wells) and a three-fold (300%) increase in survival in the presence of thiophenoxyacetic acid (3/24 wells).

Test [4] has as its system hemoglobin polymerization. The note with it: artificially deoxygenated blood; cited from earlier work.
Where [5] appears, read: Homo sapiens, K562, 1344 h, read-out: increase in proportions of colonies surviving.

Each structure is given as a SMILES string. Like-named read-outs stand apart in the source and are kept apart here.

With `CCCC(=O)O` [AB, arginine butyrate], the “induction of fetal globin mRNA” value in test [1] is listed as “significantly increased the induction of fetal globin MRNA”. Moreover, in test [1] (1.0 mM, 4 days), the Gamma/Alpha worked out at 0.66 and the activation at 1000 µM came to 20%. The inhibition at 500 µM in the test on MCF-7 cells (0.5 mM) is around 60%. Also, the inhibition at 1000 µM in the test with MCF-7 cells (1.0 mM) was above 90%. Further, the “footprints in the γ-globin promoter” value in the test on γ-globin gene promoter (erythroblasts of a sickle cell anemia patient, post-treatment (FIG. 13)) is reported as “four major footprints in the fetal response elements”. The “induction of transcription factors interacting with the γ-globin gene promoter” value in the test with γ-globin gene promoter (sickle cell anemia patient) is “induces multiple transcription factors which interact with the γ-globin gene promoter, resulting in activation”. In the test with γ-globin gene promoter (β-thalassemia and sickle cell anemia patients (FIG. 14)), the “degree of protection on G residues in FRE-γ1” value is recorded as “consistently increased”.
As for `O=C(O)COc1ccccc1` [PAA, Phenoxyacetic acid], the “Gamma/(Gamma + Beta)” value stood at 82.0% in test [2] (Exp. A, 0.1 mM, 12-13 days, untreated 76.0%); 38.8% in test [2] (Exp. B, 0.5 mM, 12-13 days, untreated 25.4%, 27.5%); 55.6% in test [2] (Exp. C, 0.5 mM, overnight, untreated 52.0%). In addition, the “induction of fetal globin mRNA” value in test [1] is on record as “significantly increased the induction of fetal globin MRNA”. Also, the Gamma/Alpha in test [1] (1.0 mM, 4 days) is 0.70. For the same molecule, the activation at 1000 µM is 24% in test [1] and above 600% in test [3] (setting [5]). In addition, the colonies surviving in test [3] (1 mM, 8 weeks in G418, none of 24 wells without compound) was 6/24. Also, in test [3] (setting [5]), the fold induction at 1000 µM is above 6. The inhibition of polymerization entry in test [4] is “inhibit polymerization”.
